Source: ChEMBL document CHEMBL5356947, “Mitochondria-targeted biotin-conjugated BODIPYs for cancer imaging and therapy” (RSC Med Chem, 2023)

Experiments:
[1] = tested on: MDA-MB-231; test: Photocytotoxicity against human MDA-MB-231 cells assessed as inhibition of cell growth incubated for 24 hrs by MTT assay; type: functional, cell-based; conditions: MDA-MB-231, 24 h
[2] = tested on: MCF7; test: Photocytotoxicity against human MCF7 cells assessed as inhibition of cell growth incubated for 24 hrs by MTT assay; type: functional, cell-based; conditions: MCF7, 24 h
[3] = tested on: HCT-116; test: Photocytotoxicity against human HCT-116 cells assessed as inhibition of cell growth incubated for 24 hrs by MTT assay; type: functional, cell-based; conditions: HCT-116, 24 h
[4] = tested on: HT-29; test: Photocytotoxicity against human HT-29 cells assessed as inhibition of cell growth incubated for 24 hrs by MTT assay; type: functional, cell-based; conditions: HT-29, 24 h
[5] = Photocytotoxicity against human MCF-10A cells assessed as inhibition of cell growth incubated for 24 hrs by MTT assay; type: toxicity, cell-based
[6] = Drug localization in mitochondria of human MDA-MB-231 cells incubated for 1 hrs by Mitotracker deep red/Hoechst staining based confocal microscopic analysis; type: ADME; conditions: mda-mb-231, 1 h
[7] = tested on: MDA-MB-231; test: Induction of oxidative stress on human MDA-MB-231 cells assessed as increase in ROS population incubated for 24 hrs under dark condition by CM-H2DCFDA staining based analysis relative to control; type: functional
[8] = tested on: MDA-MB-231; test: Induction of oxidative stress on human MDA-MB-231 cells assessed as increase in ROS population at 15 nM preincubated with compound for 24 hrs followed by 540 nm light irradiation for 1 hrs by CM-H2DCFDA staining based analysis (reference value: 1.6%); type: functional; conditions: time 25 hrs
[9] = tested on: MDA-MB-231; test: Induction of oxidative stress on human MDA-MB-231 cells assessed as increase in ROS population at 30 nM preincubated with compound for 24 hrs followed by 540 nm light irradiation for 1 hrs by CM-H2DCFDA staining based analysis (reference value: 1.6%); type: functional; conditions: time 25 hrs
[10] = tested on: MDA-MB-231; test: Induction of apoptosis in human MDA-MB-231 cells assessed as early apoptotic cells at 15 nM incubated for 24 hrs under dark condition by Annexin V-FITC/PI staining based flow cytometric analysis relative to control; type: functional
[11] = tested on: MDA-MB-231; test: Induction of apoptosis in human MDA-MB-231 cells assessed as late apoptotic cells at 15 nM incubated for 24 hrs under dark condition by Annexin V-FITC/PI staining based flow cytometric analysis relative to control; type: functional
[12] = tested on: MDA-MB-231; test: Induction of apoptosis in human MDA-MB-231 cells assessed as necrotic cells at 15 nM incubated for 24 hrs under dark condition by Annexin V-FITC/PI staining based flow cytometric analysis relative to control; type: functional
[13] = tested on: MDA-MB-231; test: Induction of apoptosis in human MDA-MB-231 cells assessed as early apoptotic cells at 15 nM preincubated with compound for 24 hrs followed by 540 nm light irradiation for 1 hrs by Annexin V-FITC/PI staining based flow cytometric analysis (reference value: 19.2%); type: functional; conditions: time 25 hrs
[14] = tested on: MDA-MB-231; test: Induction of apoptosis in human MDA-MB-231 cells assessed as late apoptotic cells at 15 nM preincubated with compound for 24 hrs followed by 540 nm light irradiation for 1 hrs by Annexin V-FITC/PI staining based flow cytometric analysis (reference value: 17.1%); type: functional; conditions: time 25 hrs
[15] = tested on: MDA-MB-231; test: Induction of apoptosis in human MDA-MB-231 cells assessed as necrotic cells at 15 nM preincubated with compound for 24 hrs followed by 540 nm light irradiation for 1 hrs by Annexin V-FITC/PI staining based flow cytometric analysis (reference value: 2.7%); type: functional; conditions: time 25 hrs
[16] = tested on: MDA-MB-231; test: Induction of apoptosis in human MDA-MB-231 cells assessed as early apoptotic cells at 30 nM preincubated with compound for 24 hrs followed by 540 nm light irradiation for 1 hrs by Annexin V-FITC/PI staining based flow cytometric analysis (reference value: 19.2%); type: functional; conditions: time 25 hrs
[17] = tested on: MDA-MB-231; test: Induction of apoptosis in human MDA-MB-231 cells assessed as late apoptotic cells at 30 nM preincubated with compound for 24 hrs followed by 540 nm light irradiation for 1 hrs by Annexin V-FITC/PI staining based flow cytometric analysis (reference value: 17.1%); type: functional; conditions: time 25 hrs
[18] = tested on: MDA-MB-231; test: Induction of apoptosis in human MDA-MB-231 cells assessed as necrotic cells at 30 nM preincubated with compound for 24 hrs followed by 540 nm light irradiation for 1 hrs by Annexin V-FITC/PI staining based flow cytometric analysis (reference value: 2.7%); type: functional; conditions: time 25 hrs
[19] = tested on: MDA-MB-231; test: Cell cycle arrest in human MDA-MB-231 cells assessed as accumulation of cells at G2/M phase at 15 nM preincubated with compound for 15 mins followed by light irradiation and measured after 3 to 24 hrs by RNase A/PI staining based flow cytometric analysis (reference value: 12.9%); type: functional; conditions: time 195-1455 min
[20] = tested on: MDA-MB-231; test: Cell cycle arrest in human MDA-MB-231 cells assessed as accumulation of cells at S phase incubated for 24 hrs by RNase A/PI staining based flow cytometric analysis relative to control; type: functional
[21] = tested on: MDA-MB-231; test: Cell cycle arrest in human MDA-MB-231 cells assessed as accumulation of cells at G1 phase incubated for 24 hrs by RNase A/PI staining based flow cytometric analysis relative to control; type: functional
[22] = tested on: MDA-MB-231; test: Cell cycle arrest in human MDA-MB-231 cells assessed as accumulation of cells at G2/M phase incubated for 24 hrs by RNase A/PI staining based flow cytometric analysis relative to control; type: functional
[23] = tested on: MDA-MB-231; test: Cell cycle arrest in human MDA-MB-231 cells assessed as accumulation of cells at S phase at 15 nM preincubated with compound for 15 mins followed by light irradiation and measured after 3 to 24 hrs by RNase A/PI staining based flow cytometric analysis (reference value: 16.4%); type: functional; conditions: time 195-1455 min
[24] = tested on: MDA-MB-231; test: Cell cycle arrest in human MDA-MB-231 cells assessed as accumulation of cells at G1 phase at 15 nM preincubated with compound for 15 mins followed by light irradiation and measured after 3 to 24 hrs by RNase A/PI staining based flow cytometric analysis (reference value: 65.7%); type: functional; conditions: time 195-1455 min
[25] = tested on: MDA-MB-231; test: Cell cycle arrest in human MDA-MB-231 cells assessed as accumulation of cells at G1 phase at 30 nM preincubated with compound for 15 mins followed by light irradiation and measured after 3 to 24 hrs by RNase A/PI staining based flow cytometric analysis (reference value: 65.7%); type: functional; conditions: time 195-1455 min
[26] = tested on: MDA-MB-231; test: Cell cycle arrest in human MDA-MB-231 cells assessed as accumulation of cells at S phase at 30 nM preincubated with compound for 15 mins followed by light irradiation and measured after 3 to 24 hrs by RNase A/PI staining based flow cytometric analysis (reference value: 16.4%); type: functional; conditions: time 195-1455 min
[27] = tested on: MDA-MB-231; test: Cell cycle arrest in human MDA-MB-231 cells assessed as accumulation of cells at G2/M phase at 30 nM preincubated with compound for 15 mins followed by light irradiation and measured after 3 to 24 hrs by RNase A/PI staining based flow cytometric analysis (reference value: 12.9%); type: functional; conditions: time 195-1455 min
[28] = Absorption property of the compound by UV-vis spectrophotometer; type: physicochemical
[29] = Emission property of the compound by fluorescence spectrophotometer analysis; type: physicochemical
[30] = Absorption property of the compound assessed as molar extinction co-effecient by UV-vis spectrophotometer; type: physicochemical
[31] = Fluorescence property of the compound assessed as fluorescence quantum yield in EtOH; type: physicochemical
[32] = Absorption property of the compound assessed as triplet quantum yield by UV-vis spectrophotometer; type: physicochemical
[33] = Photosensitizing ability of the compound in MeOH assessed as singlet oxygen generation at 408 nm measured upto 120 sec by DPBF based assay; type: functional
[34] = Absorption property of the compound assessed as decay lifetime; type: physicochemical
[35] = tested on: MDA-MB-231; test: Induction of oxidative stress on human MDA-MB-231 cells assessed as increase in ROS population at 30 nM preincubated with compound for 24 hrs followed by 540 nm light irradiation for 1 hrs by CM-H2DCFDA staining based analysis (reference value: 2.5%); type: functional; conditions: time 25 hrs
[36] = tested on: MDA-MB-231; test: Induction of oxidative stress on human MDA-MB-231 cells assessed as increase in ROS population at 60 nM preincubated with compound for 24 hrs followed by 540 nm light irradiation for 1 hrs by CM-H2DCFDA staining based analysis (reference value: 2.5%); type: functional; conditions: time 25 hrs
[37] = tested on: MDA-MB-231; test: Induction of apoptosis in human MDA-MB-231 cells assessed as early apoptotic cells at 30 nM incubated for 24 hrs under dark condition by Annexin V-FITC/PI staining based flow cytometric analysis relative to control; type: functional
[38] = tested on: MDA-MB-231; test: Induction of apoptosis in human MDA-MB-231 cells assessed as late apoptotic cells at 30 nM incubated for 24 hrs under dark condition by Annexin V-FITC/PI staining based flow cytometric analysis relative to control; type: functional
[39] = tested on: MDA-MB-231; test: Induction of apoptosis in human MDA-MB-231 cells assessed as necrotic cells at 30 nM incubated for 24 hrs under dark condition by Annexin V-FITC/PI staining based flow cytometric analysis relative to control; type: functional
[40] = tested on: MDA-MB-231; test: Induction of apoptosis in human MDA-MB-231 cells assessed as early apoptotic cells at 60 nM preincubated with compound for 24 hrs followed by 540 nm light irradiation for 1 hrs by Annexin V-FITC/PI staining based flow cytometric analysis (reference value: 19.2%); type: functional; conditions: time 25 hrs
[41] = tested on: MDA-MB-231; test: Induction of apoptosis in human MDA-MB-231 cells assessed as late apoptotic cells at 60 nM preincubated with compound for 24 hrs followed by 540 nm light irradiation for 1 hrs by Annexin V-FITC/PI staining based flow cytometric analysis (reference value: 17.1%); type: functional; conditions: time 25 hrs
[42] = tested on: MDA-MB-231; test: Induction of apoptosis in human MDA-MB-231 cells assessed as necrotic cells at 60 nM preincubated with compound for 24 hrs followed by 540 nm light irradiation for 1 hrs by Annexin V-FITC/PI staining based flow cytometric analysis (reference value: 2.7%); type: functional; conditions: time 25 hrs
[43] = tested on: MDA-MB-231; test: Cell cycle arrest in human MDA-MB-231 cells assessed as accumulation of cells at G1 phase at 60 nM preincubated with compound for 15 mins followed by light irradiation and measured after 3 to 24 hrs by RNase A/PI staining based flow cytometric analysis (reference value: 65.7%); type: functional; conditions: time 195-1455 min
[44] = tested on: MDA-MB-231; test: Cell cycle arrest in human MDA-MB-231 cells assessed as accumulation of cells at S phase at 60 nM preincubated with compound for 15 mins followed by light irradiation and measured after 3 to 24 hrs by RNase A/PI staining based flow cytometric analysis (reference value: 16.4%); type: functional; conditions: time 195-1455 min
[45] = tested on: MDA-MB-231; test: Cell cycle arrest in human MDA-MB-231 cells assessed as accumulation of cells at G2/M phase at 60 nM preincubated with compound for 15 mins followed by light irradiation and measured after 3 to 24 hrs by RNase A/PI staining based flow cytometric analysis (reference value: 12.9%); type: functional; conditions: time 195-1455 min

CC1=C(I)C(C)=[N+]2C1=C(c1ccc(OCc3cn(CCOCCOCCOCCNC(=O)CCCCC4SCC5NC(=O)NC54)nn3)cc1)c1c(C)c(I)c(C)n1[B-]2(F)F (stereo not drawn)
IC50 [1]: 18.7 nM
IC50 [2]: 21.8 nM
IC50 [3]: 22.5 nM
IC50 [4]: 27.5 nM
IC50 at 24 h [5]: 196 nM
Drug uptake [6]: Active
Activity [7]: 14.2%
Activity [8]: 41.6%
Activity [9]: 62.3%
Activity [10]: 13%
Activity [11]: 10.4%
Activity [12]: 3%
Activity [13]: 22.4%
Activity [14]: 30%
Activity [15]: 7.3%
Activity [16]: 8.3%
Activity [17]: 43%
Activity [18]: 21.4%
Activity [19]: 21.8%
Activity [20]: 17.7%
Activity [21]: 64.8%
Activity [22]: 13.7%
Activity [23]: 15.5%
Activity [24]: 59%
Activity [25]: 62.2%
Activity [26]: 14.7%
Activity [27]: 22.9%
Activity [28]: 534 nm
Activity [29]: 551 nm
Activity [30]: 123000 M⁻¹ cm⁻¹
Activity [31]: 0.032
Activity [32]: 0.4
Activity [33]: 0.33
Time [34]: 3.6 microsec

CC1=C(I)C(C)=[N+]2C1=C(c1ccc(OCc3cn(CCOCCOCCOCCOCCNC(=O)CCCCC4SCC5NC(=O)NC54)nn3)cc1)c1c(C)c(I)c(C)n1[B-]2(F)F (stereo not drawn)
IC50 [1]: 52.2 nM
IC50 [2]: 54.1 nM
IC50 [3]: 74.9 nM
IC50 [4]: 88.2 nM
IC50 at 24 h [5]: 177 nM
Drug uptake [6]: Active
Activity [7]: 5.9%
Activity [35]: 92.3%
Activity [36]: 92.4%
Activity [37]: 5.6%
Activity [38]: 11.5%
Activity [39]: 5.8%
Activity [16]: 10.5%
Activity [17]: 11.2%
Activity [18]: 12.1%
Activity [40]: 4.5%
Activity [41]: 34.1%
Activity [42]: 40.1%
Activity [20]: 18.1%
Activity [21]: 63.3%
Activity [22]: 13.3%
Activity [25]: 63%
Activity [26]: 14.6%
Activity [27]: 19.2%
Activity [43]: 58.7%
Activity [44]: 15.5%
Activity [45]: 22%
Activity [28]: 533 nm
Activity [29]: 549 nm
Activity [30]: 91000 M⁻¹ cm⁻¹
Activity [31]: 0.039
Activity [32]: 0.44
Activity [33]: 0.34
Time [34]: 2.5 microsec
